# Patent US20130245598A1, “PHOTOACTIVE VITAMIN NANOPARTICLES FOR THE TREATMENT OF CHRONIC WOUNDS” (priority 2010, published 2013)
# How the values were obtained:
# [1] = Singlet oxygen study using ADPA as singlet oxygen sensor; type: physicochemical; conditions: after 15 minutes of irradiation
# E. coli = experiment: microbe, parasite or virus in culture; conditions: Escherichia coli, light or radiation study, read-out: LD50 E. coli Irradiated
# [2] = cited from earlier work
# plasmid DNA = experiment: Photocleavage of plasmid DNA (ethidium bromide stained agarose gel); type: biochemical; conditions: irradiation with visible light (λ>395 nm); 120 μM plasmid DNA; 25 and 50 μM riboflavin; 30 min incubation, 30 min irradiation
# Description: From the left: Lane 1: DNA only, dark. Lane 2: DNA only, irradiated.
# DNA = DNA binding constant
# Water solubility = type: physicochemical
# [3] = cited from the MSDS; cited from earlier work
# Description for Human Skin: Toxicity of the formulations towards human skin cells is examined by previously published methods.
Compound,Production of singlet oxygen [1],LD50 (E. coli) [mg/kg],water solubility [2],Photocleavage of plasmid DNA from Form I (supercoiled) to Form II (nicked) (plasmid DNA),DNA binding constant Kb (DNA),concentration showing precipitation in water (Water solubility) [μm],LD50 Human Skin Dark (Human Skin; dark),LD50 Human Skin Irradiated (Human Skin; irradiated),LD50 Acute Oral Toxicity [3]
"Cc1cc2nc3c(=O)[nH]c(=O)nc-3n(C[C@H](O)[C@H](O)[C@H](O)CO)c2cc1C [Riboflavin, 7,8-dimethyl-10-ribityl-isoalloxazine]",capable of producing a large quantity of singlet oxygen,85,100 µg/mL,can cleave DNA,> 10^4 M^−1,250,–,–,–
"CC1=C(C/C=C(\C)CCC[C@H](C)CCC[C@H](C)CCCC(C)C)C(=O)c2ccccc2C1=O [Phylloquinone, phylloquinone]",–,–,does not dissolve in water,–,–,–,No Effect,"18,779 mg/Kg","25,000 mg/Kg"
